# Marks after values point to notes of the source that are not given here.
# Assays:
# [1] = test system: carrageenan induced paw oedema; assay: Inhibition of carrageenan induced oedema in rats; format: in vivo, rat; details: CARR induced oedema test
# Experimental: The treated paw was immersed up to the tibio-tarsal articulation into the chamber and the volume of displaced liquid was determined as the degree of the inflammation. Degree of inflammation (ml)=volume after the CARR treatment (ml)−volume before the CARR treatment (ml)
# The degree of the anti-inflammatory effect of the treated group (which obtained test agent) was compared to that of the control group (which obtained only vehicle). The test compound and the vehicle were given orally by blunt-ended needle cannula one hour before the CARR treatment. The volume of the treated paw was measured at 3 and 5 hours after the CARR treatment and the change in the degree of inflammation in % was calculated according to the following formula: Anti-inflammatory activity %=100×[control group (ml)−treated group (ml)/control group (ml)]
# […] Anti-inflammatory activity of the compounds was determined in % at 4 and 6 hours after p.o. treatment and ED30 was calculated.
# [2] = test system: acetic acid induced chronic gastric ulcer; assay: Acetic acid induced chronic gastric ulcer in rats; format: in vivo, rat; details: 2.0 mg/kg p.o. for seven days
# Experimental: In our experiments the method […] of Okabe et al was used. Male Wistar rats of 150-170 g were narcotize part of the stomach.
# The test compound was given p.o. on the fifth day after the operation for seven days. The animals were euthanized with ether after 24 hours of the last dose and the abdomen was macroscopically examined (exravasation, accretion), the stomach was excised and the diameters of ulcers were measured.
Structure (SMILES),melting point [°C],further results
"Cc1ccc(-c2cc(C(F)(F)F)nn2-c2ccc(S(=O)(=O)NOC(C)C(=O)[O-])cc2)cc1.[Na+] (racemic) [Example 6, Disodium (R,S)-2-[4-(5-p-methylphenyl-3-trifluoromethyl-pyrazol-1-yl)-benzenesulfonyl-aminooxy]-propionic acid monohydrate]",,anti-inflammatory activity compared with celecoxib [1]: significantly (p<0.05) higher
"CCOC(=O)CONS(=O)(=O)c1ccc(-n2nc(C(F)(F)F)cc2-c2ccc(C)cc2)cc1 [Example 8, [4-(5-p-methylphenyl-3-trifluoromethyl-pyrazol-1-yl)-benzenesulfonylaminooxy]-acetic acid ethyl ester]",143 to 144,
"CC(=O)ONS(=O)(=O)c1ccc(-n2nc(C(F)(F)F)cc2-c2ccc(C)cc2)cc1 [Example 11, N-acetoxy-4-(5-p-methylphenyl-3-trifluoromethyl-pyrazol-1-yl)-benzenesulamide]",138 to 140,
"Cc1ccc(-c2cc(C(F)(F)F)nn2-c2ccc(S(=O)(=O)NOC(=O)c3ccccc3)cc2)cc1 [Example 12, N-benzoyloxy-4-(5-p-methylphenyl-3-trifluoromethyl-pyrazol-1-yl)-benzenesulfonamide]",152 to 155,
COc1ccc2c(c1)c(CC(=O)O)c(C)n2C(=O)c1ccc(Cl)cc1 [Indometacin],,Area of ulcer (mm^2) [2]: 39.0 ± 5** mm^2; Change of bodyweight (g) + (increase) − (decrease) [2]: +2 ± 0.6 g

# Second part, led by results:
melting point [°C],Structure (SMILES),further results
224 to 225,"Cc1ccc(-c2cc(C(F)(F)F)nn2-c2ccc(S(=O)(=O)NOCC(=O)O)cc2)cc1 [Example 7, [4-(5-p-methylphenyl-3-trifluoromethyl-pyrazol-1-yl)-benzenesulfonylaminooxy]-acetic acid]",
176 to 178,"Cc1ccc(-c2cc(C(F)(F)F)nn2-c2ccc(S(=O)(=O)NOCCC(=O)O)cc2)cc1 [Example 9, 3-[4-(5-p-methylphenyl-3-trifluoromethyl-pyrazol-1-yl)-benzenesulfonylaminooxy]-propionic acid]",
137 to 138,"CCOC(=O)C(C)ONS(=O)(=O)c1ccc(-n2nc(C(F)(F)F)cc2-c2ccc(C)cc2)cc1 (stereo not shown) [Example 10, 2-[4-(5-p-methylphenyl-3-trifluoromethyl-pyrazol-1-yl)-benzenesulfonylaminooxy]-propionic acid ethyl ester]",
134 to 136,"Cc1ccc(-c2cc(C(F)(F)F)nn2-c2ccc(S(=O)(=O)NOC(=O)C(C)(C)C)cc2)cc1 [Example 13, N-pivaloyloxy-4-(5-p-methylphenyl-3-trifluoromethyl-pyrazol-1-yl)-benzenesulfonamide]",
